Experiment [1] concerns the target T1, Protein deacetylase HDAC6 (Homo sapiens, UniProt Q9UBN7).
T1 sequence (Q9UBN7 whole entry): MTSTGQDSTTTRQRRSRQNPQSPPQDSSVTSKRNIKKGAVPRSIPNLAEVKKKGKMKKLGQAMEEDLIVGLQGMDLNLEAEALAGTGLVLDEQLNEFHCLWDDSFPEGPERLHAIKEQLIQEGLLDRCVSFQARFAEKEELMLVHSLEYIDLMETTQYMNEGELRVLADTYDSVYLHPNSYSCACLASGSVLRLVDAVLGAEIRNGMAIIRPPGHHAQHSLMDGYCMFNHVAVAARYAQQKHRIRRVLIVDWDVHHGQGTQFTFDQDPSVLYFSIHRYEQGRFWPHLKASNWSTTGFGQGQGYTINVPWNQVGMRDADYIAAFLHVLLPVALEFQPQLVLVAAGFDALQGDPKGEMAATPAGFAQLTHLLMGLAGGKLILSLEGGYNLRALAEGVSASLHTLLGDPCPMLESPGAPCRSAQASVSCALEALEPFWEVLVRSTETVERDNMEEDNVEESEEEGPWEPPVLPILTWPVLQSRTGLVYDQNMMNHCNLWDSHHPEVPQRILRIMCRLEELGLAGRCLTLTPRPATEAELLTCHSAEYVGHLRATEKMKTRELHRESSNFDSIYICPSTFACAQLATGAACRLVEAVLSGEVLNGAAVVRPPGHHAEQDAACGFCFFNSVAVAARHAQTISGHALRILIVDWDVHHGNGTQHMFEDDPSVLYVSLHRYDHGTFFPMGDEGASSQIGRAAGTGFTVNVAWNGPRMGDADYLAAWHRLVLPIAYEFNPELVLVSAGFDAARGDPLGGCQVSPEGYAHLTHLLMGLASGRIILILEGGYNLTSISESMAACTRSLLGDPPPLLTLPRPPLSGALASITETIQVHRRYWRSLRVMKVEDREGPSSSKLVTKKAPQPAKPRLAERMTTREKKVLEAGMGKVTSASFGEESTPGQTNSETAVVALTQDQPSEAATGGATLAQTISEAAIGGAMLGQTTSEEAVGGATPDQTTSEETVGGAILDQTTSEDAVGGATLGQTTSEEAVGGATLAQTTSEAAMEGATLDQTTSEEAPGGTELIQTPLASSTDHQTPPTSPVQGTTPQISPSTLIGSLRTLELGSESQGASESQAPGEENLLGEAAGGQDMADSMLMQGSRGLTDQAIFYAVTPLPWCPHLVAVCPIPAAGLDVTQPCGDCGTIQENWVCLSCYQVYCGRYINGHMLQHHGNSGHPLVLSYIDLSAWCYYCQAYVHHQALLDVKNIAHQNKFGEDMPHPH
Kind of experiment: Inhibition of human recombinant N-terminal histidine-tagged HDAC6 expressed in baculovirus by fluorimetry.

Experiment [2] deals with Histone deacetylase 2 (Homo sapiens) (UniProt Q92769). The experiment is described as follows: Inhibition of human recombinant C-terminal FLAG-tagged HDAC2 expressed in baculovirus by fluorimetry.
Chain of Histone deacetylase 2 (Homo sapiens) (Q92769 whole entry): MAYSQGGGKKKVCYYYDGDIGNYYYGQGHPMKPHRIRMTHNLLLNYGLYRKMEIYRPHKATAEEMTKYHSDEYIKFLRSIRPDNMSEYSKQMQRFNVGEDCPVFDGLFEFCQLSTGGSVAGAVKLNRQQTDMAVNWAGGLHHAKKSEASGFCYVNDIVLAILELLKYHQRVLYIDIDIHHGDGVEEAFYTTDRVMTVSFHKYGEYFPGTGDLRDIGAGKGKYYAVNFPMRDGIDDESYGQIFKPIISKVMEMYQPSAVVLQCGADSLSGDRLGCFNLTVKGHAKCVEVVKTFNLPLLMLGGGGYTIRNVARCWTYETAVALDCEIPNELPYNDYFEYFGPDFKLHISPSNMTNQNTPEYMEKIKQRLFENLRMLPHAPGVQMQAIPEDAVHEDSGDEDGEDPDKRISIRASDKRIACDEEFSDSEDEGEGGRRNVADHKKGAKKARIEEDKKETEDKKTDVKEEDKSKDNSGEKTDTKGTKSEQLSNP
In experiment [3] the target is T2, Histone deacetylase 1 (Homo sapiens, UniProt Q13547). Kind of experiment: Inhibition of human recombinant C-terminal FLAG-tagged HDAC1 expressed in baculovirus by fluorimetry.
T2 sequence (Q13547 whole entry): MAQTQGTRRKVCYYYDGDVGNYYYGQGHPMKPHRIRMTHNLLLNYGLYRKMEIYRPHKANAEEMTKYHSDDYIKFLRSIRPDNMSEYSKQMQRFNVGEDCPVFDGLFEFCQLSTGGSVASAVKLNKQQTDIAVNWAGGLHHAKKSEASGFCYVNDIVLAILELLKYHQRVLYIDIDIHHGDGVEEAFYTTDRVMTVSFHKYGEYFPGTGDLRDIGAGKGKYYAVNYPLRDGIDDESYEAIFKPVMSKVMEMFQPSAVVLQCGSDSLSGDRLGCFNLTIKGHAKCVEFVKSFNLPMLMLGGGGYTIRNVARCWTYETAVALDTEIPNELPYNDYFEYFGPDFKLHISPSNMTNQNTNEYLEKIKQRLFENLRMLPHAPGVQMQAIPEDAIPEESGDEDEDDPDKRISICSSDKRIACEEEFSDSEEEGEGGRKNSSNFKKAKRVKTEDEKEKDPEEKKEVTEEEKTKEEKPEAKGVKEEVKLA
Experiment [4] deals with T-24. The experiment is described as follows: Induction of histone H3 acetylation in human T24 cells after 3 hrs by ELISA. The format is functional, cell-based. To be noted: T-24, 3 h.
For experiment [5], the system named is T-24. The experiment is described as follows: Induction of alpha tubulin acetylation in human T24 cells after 3 hrs by ELISA. To be noted: T-24, 3 h. The format is functional, cell-based. Background: ELISA stands for enzyme-linked immunosorbent assay.
The target of experiment [6] is T2, Histone deacetylase 1. The experiment is described as follows: Inhibition of HDAC1 in human 293T cells after 16 hrs by fluorimetry. Format: cell-based.
Experiment [7] deals with T3, Histone deacetylase 8 (Homo sapiens) (UniProt Q9BY41).
T3 sequence (whole entry): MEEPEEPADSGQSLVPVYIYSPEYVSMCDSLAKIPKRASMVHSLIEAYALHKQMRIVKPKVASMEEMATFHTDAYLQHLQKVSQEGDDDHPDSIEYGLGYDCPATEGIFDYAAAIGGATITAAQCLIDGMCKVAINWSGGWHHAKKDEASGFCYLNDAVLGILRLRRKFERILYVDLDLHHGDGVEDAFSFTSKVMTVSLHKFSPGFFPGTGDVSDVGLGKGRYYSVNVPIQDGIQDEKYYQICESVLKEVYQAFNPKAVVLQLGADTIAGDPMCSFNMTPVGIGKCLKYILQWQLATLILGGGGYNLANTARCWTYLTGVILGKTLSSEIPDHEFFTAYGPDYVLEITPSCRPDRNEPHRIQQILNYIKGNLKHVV
Kind of experiment: Inhibition of human recombinant N-terminal histidine-tagged HDAC8 expressed in baculovirus by fluorimetry.

Experiment [8] addresses Histone deacetylase 5 (Homo sapiens) (UniProt Q9UQL6). The experiment is described as follows: Inhibition of human recombinant N-terminal histidine-tagged HDAC5 expressed in baculovirus by fluorimetry.
The target of experiment [9] is T4, Histone deacetylase 7 (Homo sapiens) (UniProt Q8WUI4).
T4 sequence (whole entry): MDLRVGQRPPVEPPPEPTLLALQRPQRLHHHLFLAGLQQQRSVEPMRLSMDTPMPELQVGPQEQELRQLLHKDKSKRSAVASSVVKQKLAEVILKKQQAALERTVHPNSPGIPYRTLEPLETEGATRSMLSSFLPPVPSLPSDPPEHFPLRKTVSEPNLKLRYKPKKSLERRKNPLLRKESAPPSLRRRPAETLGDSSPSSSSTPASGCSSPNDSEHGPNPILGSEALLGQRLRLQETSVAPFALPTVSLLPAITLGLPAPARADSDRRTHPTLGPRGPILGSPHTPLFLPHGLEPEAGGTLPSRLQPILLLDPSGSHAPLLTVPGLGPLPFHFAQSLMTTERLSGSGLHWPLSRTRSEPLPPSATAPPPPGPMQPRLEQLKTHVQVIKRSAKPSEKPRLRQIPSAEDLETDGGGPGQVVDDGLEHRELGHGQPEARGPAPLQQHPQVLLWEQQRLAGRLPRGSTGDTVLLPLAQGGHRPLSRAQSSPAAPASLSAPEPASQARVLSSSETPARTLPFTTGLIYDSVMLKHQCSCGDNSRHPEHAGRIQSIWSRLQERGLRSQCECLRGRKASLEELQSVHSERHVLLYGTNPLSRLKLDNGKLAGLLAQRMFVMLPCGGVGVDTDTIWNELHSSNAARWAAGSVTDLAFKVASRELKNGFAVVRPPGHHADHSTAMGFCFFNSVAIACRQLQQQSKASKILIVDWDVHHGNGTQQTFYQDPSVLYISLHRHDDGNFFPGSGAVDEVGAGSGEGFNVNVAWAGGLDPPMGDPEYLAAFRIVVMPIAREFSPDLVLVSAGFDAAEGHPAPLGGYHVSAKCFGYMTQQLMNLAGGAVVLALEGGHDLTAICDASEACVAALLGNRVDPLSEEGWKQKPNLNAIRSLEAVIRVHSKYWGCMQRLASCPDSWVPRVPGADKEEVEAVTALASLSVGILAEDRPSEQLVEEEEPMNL
Kind of experiment: Inhibition of human recombinant N-terminal histidine-tagged HDAC7 expressed in baculovirus by fluorimetry.

Experiment [10] has as its target Histone deacetylase 4 (Homo sapiens) (UniProt P56524). The experiment is described as follows: Inhibition of human recombinant N-terminal histidine-tagged HDAC4 expressed in baculovirus by fluorimetry.
For experiment [11], the target named is Histone deacetylase 3 (Homo sapiens) (UniProt O15379). Kind of experiment: Inhibition of human recombinant C-terminal FLAG-tagged HDAC3 expressed in baculovirus by fluorimetry.
Chain of Histone deacetylase 3 (Homo sapiens) (O15379 whole entry): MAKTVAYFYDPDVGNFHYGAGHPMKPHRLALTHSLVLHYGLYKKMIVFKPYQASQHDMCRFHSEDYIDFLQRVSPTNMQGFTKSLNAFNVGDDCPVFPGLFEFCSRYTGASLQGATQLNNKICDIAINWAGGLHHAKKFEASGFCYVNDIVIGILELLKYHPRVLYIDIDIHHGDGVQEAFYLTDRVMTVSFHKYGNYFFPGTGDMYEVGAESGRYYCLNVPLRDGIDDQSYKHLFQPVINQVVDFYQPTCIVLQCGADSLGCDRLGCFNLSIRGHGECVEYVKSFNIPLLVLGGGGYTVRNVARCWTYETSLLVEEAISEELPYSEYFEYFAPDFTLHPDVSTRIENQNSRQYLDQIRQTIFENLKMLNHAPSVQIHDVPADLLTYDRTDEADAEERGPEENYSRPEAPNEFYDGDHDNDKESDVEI

Calls of active or inactive are those of the source. No cut-off for these calls is given here.

As a reminder, the IC50 is the concentration at which inhibition is half-maximal. In general, EC50 refers to the concentration needed to bring the measured effect to its halfway point.

Chain of Histone deacetylase 5 (Homo sapiens) (Q9UQL6 whole entry): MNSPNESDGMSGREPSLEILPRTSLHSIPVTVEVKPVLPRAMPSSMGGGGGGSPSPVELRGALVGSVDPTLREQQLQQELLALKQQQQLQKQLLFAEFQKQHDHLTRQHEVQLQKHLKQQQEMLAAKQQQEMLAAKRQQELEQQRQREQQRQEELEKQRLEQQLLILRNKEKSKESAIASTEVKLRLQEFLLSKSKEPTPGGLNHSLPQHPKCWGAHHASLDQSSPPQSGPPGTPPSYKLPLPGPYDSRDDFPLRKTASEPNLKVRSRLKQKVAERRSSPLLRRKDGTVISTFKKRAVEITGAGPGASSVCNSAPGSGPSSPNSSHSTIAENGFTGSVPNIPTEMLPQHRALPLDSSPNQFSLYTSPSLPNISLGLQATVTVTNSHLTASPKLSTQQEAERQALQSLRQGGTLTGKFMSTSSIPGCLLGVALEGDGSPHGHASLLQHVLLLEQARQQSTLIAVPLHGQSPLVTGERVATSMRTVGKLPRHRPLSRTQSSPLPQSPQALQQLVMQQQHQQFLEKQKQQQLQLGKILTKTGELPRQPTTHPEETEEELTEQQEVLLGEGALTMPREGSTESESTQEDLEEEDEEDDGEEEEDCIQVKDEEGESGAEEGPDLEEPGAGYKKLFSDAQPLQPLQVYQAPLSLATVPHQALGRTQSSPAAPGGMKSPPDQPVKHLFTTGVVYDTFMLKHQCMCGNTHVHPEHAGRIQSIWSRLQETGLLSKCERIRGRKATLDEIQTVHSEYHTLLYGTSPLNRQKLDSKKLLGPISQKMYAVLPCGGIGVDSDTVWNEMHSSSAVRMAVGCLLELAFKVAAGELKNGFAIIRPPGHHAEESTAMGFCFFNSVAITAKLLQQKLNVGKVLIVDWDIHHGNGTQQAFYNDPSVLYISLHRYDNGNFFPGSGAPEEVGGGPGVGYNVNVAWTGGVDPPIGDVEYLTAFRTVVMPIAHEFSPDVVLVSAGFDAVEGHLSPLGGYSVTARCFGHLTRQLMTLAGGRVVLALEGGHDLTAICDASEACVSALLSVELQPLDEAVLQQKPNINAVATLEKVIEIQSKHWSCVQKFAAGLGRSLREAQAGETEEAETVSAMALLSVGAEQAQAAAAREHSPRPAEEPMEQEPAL
Chain of Histone deacetylase 4 (Homo sapiens) (P56524 whole entry): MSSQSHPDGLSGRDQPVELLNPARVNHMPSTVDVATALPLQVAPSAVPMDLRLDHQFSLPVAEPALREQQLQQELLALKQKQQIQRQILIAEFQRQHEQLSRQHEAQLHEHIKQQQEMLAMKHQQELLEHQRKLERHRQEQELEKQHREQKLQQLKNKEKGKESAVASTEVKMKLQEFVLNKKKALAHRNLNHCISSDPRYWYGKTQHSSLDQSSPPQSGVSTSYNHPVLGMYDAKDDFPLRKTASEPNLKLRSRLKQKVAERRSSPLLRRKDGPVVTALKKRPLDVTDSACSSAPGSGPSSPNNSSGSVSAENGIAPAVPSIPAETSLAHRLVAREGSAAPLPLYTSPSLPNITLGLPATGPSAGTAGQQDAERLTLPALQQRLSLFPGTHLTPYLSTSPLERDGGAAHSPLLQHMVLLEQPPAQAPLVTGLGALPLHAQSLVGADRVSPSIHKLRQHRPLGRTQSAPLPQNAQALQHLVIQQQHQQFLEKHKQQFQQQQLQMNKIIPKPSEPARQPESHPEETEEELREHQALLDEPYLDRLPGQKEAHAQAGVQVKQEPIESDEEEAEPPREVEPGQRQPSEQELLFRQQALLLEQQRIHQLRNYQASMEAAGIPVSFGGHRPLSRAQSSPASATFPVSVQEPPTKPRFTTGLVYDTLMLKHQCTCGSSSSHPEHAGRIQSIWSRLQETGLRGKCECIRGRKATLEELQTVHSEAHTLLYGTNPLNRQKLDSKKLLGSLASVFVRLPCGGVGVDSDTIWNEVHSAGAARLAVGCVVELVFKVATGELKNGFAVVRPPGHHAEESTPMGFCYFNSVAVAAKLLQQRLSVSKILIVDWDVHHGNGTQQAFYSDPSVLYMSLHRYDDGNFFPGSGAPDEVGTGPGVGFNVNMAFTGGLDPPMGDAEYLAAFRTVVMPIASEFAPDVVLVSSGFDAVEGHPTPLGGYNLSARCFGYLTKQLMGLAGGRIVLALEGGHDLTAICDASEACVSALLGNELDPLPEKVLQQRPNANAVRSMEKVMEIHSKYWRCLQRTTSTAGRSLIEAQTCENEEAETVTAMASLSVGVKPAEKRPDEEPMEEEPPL

As to `NS(=O)(=O)NCCCCCC(=O)Nc1cccc2cccnc12`, the results for the IC50 (in [1]; on Histone deacetylase 1 [3]) were 390 nM and above 10000 nM, respectively. In addition, the result in [2] was inactive.

Take `COc1cc(NC(=O)[C@H](CCCCNS(N)(=O)=O)NC(=O)OCc2ccccc2)c2ncccc2c1`: the figures for the IC50 (in experiment [1]; at Histone deacetylase 1 [3]; against Histone deacetylase 1 [6]) were 60 nM, 460 nM and 1800 nM, respectively. Besides, the results for the EC50 with T-24 [4] and in the experiment on T-24 [5] were 350 nM and 200 nM, respectively.

Turning to `NS(=O)(=O)NCCCC[C@H](NC(=O)OCc1ccccc1)C(=O)Nc1nc(-c2ccccc2)cs1`, the IC50 in experiment [1] was 180 nM; on Histone deacetylase 1 [3] it was 160 nM; on Histone deacetylase 1 [6], 2300 nM. The EC50 came out at 700 nM in the experiment with T-24 [4] and 600 nM with T-24 [5].

As to `NS(=O)(=O)NCCCCCC(=O)Nc1cccc(-c2ccccc2)c1`, the IC50 in experiment [1] was 1100 nM; on Histone deacetylase 1 [3] it was above 10000 nM. The result in experiment [7], in experiment [8], in experiment [9], in [10] and in [11] was inactive.

Turning to `CNS(=O)(=O)NCCCCCC(=O)Nc1cccc(-c2ccccc2)c1`, the IC50 (in experiment [1]; on Histone deacetylase 1 [3]) was above 10000 nM throughout. Moreover, the outcome in experiment [7], in experiment [8], in [9], in experiment [10] and in [11] was inactive.

With `NS(=O)(=O)NCCCCCC(=O)Nc1cnc2ccccc2c1`, the IC50 in experiment [1] was 710 nM; at Histone deacetylase 1 [3], above 10000 nM. Besides, the outcome in experiment [2] was inactive.

On to `Nc1ccccc1NC(=O)CCCCCCC(=O)Nc1cccc(-c2ccccc2)c1`, for which the concentration for half-maximal inhibition (IC50) in experiment [1] was above 50000 nM; on Histone deacetylase 1 [3], 490 nM.

Take `NS(=O)(=O)NC(=O)CCCCCC(=O)Nc1cccc(-c2ccccc2)c1`: the IC50 (in experiment [1]; at Histone deacetylase 1 [3]) was above 10000 nM each time. In addition, the outcome in experiment [7], in [8], in experiment [9], in experiment [10] and in [11] was inactive.

On to `COc1cc(NC(=O)CCCCCNS(N)(=O)=O)c2ncccc2c1`, for which the IC50 was 440 nM in experiment [1], above 10000 nM on Histone deacetylase 1 [3] and above 50000 nM at Histone deacetylase 1 [6]. The EC50 with T-24 [4] is above 25000 nM; in the experiment with T-24 [5] it was 1000 nM. Besides, in experiment [2], the result was inactive.

With `NS(=O)(=O)NCCCCCC(=O)Nc1nc(-c2ccccc2)cs1`, the IC50 in experiment [1] is 900 nM; at Histone deacetylase 1 [3], above 10000 nM; on Histone deacetylase 1 [6], above 50000 nM. Besides, the values for the EC50 with T-24 [4] and with T-24 [5] were 20000 nM and 3500 nM, respectively. The outcome in experiment [2] was inactive.

For `NS(=O)(=O)NCCCCCCC(=O)Nc1cccc(-c2ccccc2)c1`, the IC50 (in [1]; at Histone deacetylase 1 [3]) was above 10000 nM in each case. Further, the result in experiment [7], in experiment [8], in [9], in [10] and in experiment [11] was inactive.

Regarding `NS(=O)(=O)OCCCCCC(=O)Nc1cccc(-c2ccccc2)c1`, the IC50 (in experiment [1]; on Histone deacetylase 1 [3]) was above 10000 nM throughout. Also, the result in [7], in experiment [8], in [9], in experiment [10] and in [11] was inactive.

Take `CN(C)S(=O)(=O)NCCCCCC(=O)Nc1cccc(-c2ccccc2)c1`: the IC50 (in [1]; on Histone deacetylase 1 [3]) was above 10000 nM throughout. The result in [7], in experiment [8], in experiment [9], in [10] and in [11] was inactive.

With `NS(=O)(=O)NCCCCC(=O)Nc1cccc(-c2ccccc2)c1`, the IC50 (in experiment [1]; at Histone deacetylase 1 [3]) was above 10000 nM in each case. For the same compound, the result in [7], in experiment [8], in experiment [9], in experiment [10] and in [11] was inactive.

For `O=C(CCCCCCC(=O)Nc1cccc(-c2ccccc2)c1)NO`, the IC50 (in experiment [1]; at Histone deacetylase 1 [3]) was 9 nM in each case.

On to `NS(=O)(=O)NCCCCCC(=O)Nc1ccccc1`, for which the IC50 in [1] was 1500 nM; at Histone deacetylase 1 [3] it was above 10000 nM.

With `NS(=O)(=O)NCCCCCC(=O)Nc1ccc2ncccc2c1`, the IC50 in experiment [1] was 490 nM; at Histone deacetylase 1 [3] it was above 10000 nM. In addition, the outcome in experiment [2] was inactive.

Consider `CC(=O)NS(=O)(=O)NCCCCCC(=O)Nc1cccc(-c2ccccc2)c1`, for which the IC50 (in experiment [1]; at Histone deacetylase 1 [3]) was above 10000 nM throughout. The outcome in experiment [7], in [8], in experiment [9], in [10] and in experiment [11] was inactive.

On to `CN(CCCCCC(=O)Nc1cccc(-c2ccccc2)c1)S(N)(=O)=O`, for which the IC50 (in experiment [1]; at Histone deacetylase 1 [3]) was above 10000 nM each time. Further, the result in experiment [7], in experiment [8], in [9], in experiment [10] and in [11] was inactive.

For the origin of these results see ChEMBL document CHEMBL1149076, “Sulfamides as novel histone deacetylase inhibitors” (Bioorg Med Chem Lett, 2009).
